Tested on: NIH3T3 cells
Assay: MTS formazan dye reduction cytotoxicity/cell viability assay
Protocol: Standard cytotoxicity/cell viability assays were performed using the CellTiter-96 Aqueous one solution MTS cell proliferation assay (Promega Inc) and using the standard conditions detailed in the manufacturer's instructions.
In addition, we also wanted to ensure that the observations made using the LUCIA were not due to any effects on luciferase expression or on the luciferase assay itself. For this reason, we looked at the effect of adding wortmannin and LY294002 to NIH3T3 cells containing the already integrated R229-Luc provirus.

O=c1cc(N2CCOCC2)oc2c(-c3ccccc3)cccc12 [LY294002]
cellular cytotoxicity (percentage of viable cells remaining after drug treatment) (mouse): slight cytotoxic effect at high concentrations

COC[C@H]1OC(=O)c2coc3c2[C@@]1(C)C1=C(C3=O)[C@@H]2CCC(=O)[C@@]2(C)C[C@H]1OC(C)=O [wortmannin]
cellular cytotoxicity (percentage of viable cells remaining after drug treatment) (MTS assay, concentrations used in LUCIA, FIG. 4C): slight cytotoxic effect at high concentrations

Source: patent US20040014701A1, “Inhibiting retrotransposon and retroviral integration by targeting the atm pathway” (priority 2003, published 2004)
